{"source": "the supplement of paper PMC6045584", "note": "± gives the standard deviation of the averaged measurements.", "data": [{"compound": "CS(=O)(=O)c1ccc(C(=O)Nc2ccc(Cl)c(-c3ccccn3)c2)c(Cl)c1 [VISMODEGIB]", "assay": "surviving fraction relative to DMSO-only wells; higher = less growth inhibition", "details": "0.5 nM; exposure time: 5 days", "in_short": "(§1)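 At 250–500 cells per well in 384-well plates, log-phase tumour cell lines were seeded and, 24 hours on, exposed continuously for five days to inhibitors at 0.5, 1, 5, 10, 50, 100, 500 and 1000 nM. Viability readout was CellTiter-Glo luminescence, reported as surviving fraction normalised to the median of DMSO-only wells.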", "values": [{"test system": "SCC36 HEADNECK", "surviving fraction": "0.88 ± 0.031"}, {"test system": "OS25HAL BONE", "surviving fraction": "1 ± 0.014"}, {"test system": "HCC1806 BREAST", "surviving fraction": "0.902 ± 0.088"}, {"test system": "HU09 BONE", "surviving fraction": "1.03 ± 0.079"}, {"test system": "SG43 HEADNECK", "surviving fraction": "0.961 ± 0.18"}, {"test system": "U2OS BONE", "surviving fraction": "1.04 ± 0.019"}, {"test system": "HOSMNG BONE", "surviving fraction": "0.972 ± 0.12"}, {"test system": "CASKI CERVIX", "surviving fraction": "0.939 ± 0.035"}, {"test system": "SUM44 BREAST", "surviving fraction": "0.945 ± 0.033"}, {"test system": "MDAMB231 BREAST", "surviving fraction": "0.9193 ± 0.003"}, {"test system": "CAL51 BREAST", "surviving fraction": "0.895 ± 0.042"}, {"test system": "MDAMB436 BREAST", "surviving fraction": "0.851 ± 0.041"}, {"test system": "HSSYII SYNOVIAL", "surviving fraction": "0.894 ± 0.023"}, {"test system": "RDES SOFT TISSUE", "surviving fraction": "1.06 ± 0.088"}, {"test system": "MDAMB157 BREAST", "surviving fraction": "0.901 ± 0.11"}, {"test system": "CHLA90 AUTONOMIC GANGLIA", "surviving fraction": "0.923 ± 0.084"}, {"test system": "CADOES1 SOFT TISSUE", "surviving fraction": "0.884 ± 0.024"}, {"test system": "SG31 HEADNECK", "surviving fraction": "0.965 ± 0.17"}, {"test system": "SCC47 HEADNECK", "surviving fraction": "0.968 ± 0.064"}, {"test system": "S68 BREAST", "surviving fraction": "0.99 ± 0.087"}, {"test system": "SNU475 LIVER", "surviving fraction": "0.959 ± 0.046"}, {"test system": "22RV1 PROSTATE", "surviving fraction": "1.01 ± 0.061"}, {"test system": "SG32 HEADNECK", "surviving fraction": "1.01 ± 0.031"}, {"test system": "SCC003 HEADNECK", "surviving fraction": "0.956 ± 0.073"}, {"test system": "JURKAT HAEMATOPOIETIC AND LYMPHOID TISSUE", "surviving fraction": "1.09 ± 0.0025"}, {"test system": "HT1080 SOFT TISSUE", "surviving fraction": "1.021 ± 0.01"}, {"test system": "CAL120 BREAST", "surviving fraction": "0.987 ± 0.019"}, {"test system": "MCF7 BREAST", "surviving fraction": "0.898 ± 0.029"}, {"test system": "MFM223 BREAST", "surviving fraction": "1.07 ± 0.11"}, {"test system": "LNCAP PROSTATE", "surviving fraction": "1.01 ± 0.17"}, {"test system": "PCI30 HEADNECK", "surviving fraction": "0.911 ± 0.028"}, {"test system": "OSHN BONE", "surviving fraction": "1.01 ± 0.022"}, {"test system": "SG28 HEADNECK", "surviving fraction": "1 ± 0.033"}, {"test system": "HOS BONE", "surviving fraction": "1 ± 0.013"}, {"test system": "HUO3N1 BONE", "surviving fraction": "1.04 ± 0.04"}, {"test system": "BT20 BREAST", "surviving fraction": "1.08 ± 0.13"}, {"test system": "SJSA1 BONE", "surviving fraction": "0.999 ± 0.043"}, {"test system": "JIMT1 BREAST", "surviving fraction": "0.906 ± 0.044"}, {"test system": "HCC78 LUNG", "surviving fraction": "1.08 ± 0.11"}, {"test system": "NY BONE", "surviving fraction": "0.955 ± 0.018"}, {"test system": "NOS1 BONE", "surviving fraction": "1.09 ± 0.11"}, {"test system": "SUM149.B1*.S BREAST", "surviving fraction": "0.992 ± 0.064"}, {"test system": "93VU HEADNECK", "surviving fraction": "0.962 ± 0.03"}, {"test system": "LM7 BONE", "surviving fraction": "0.92 ± 0.055"}, {"test system": "143B BONE", "surviving fraction": "0.945 ± 0.063"}, {"test system": "SUM159 BREAST", "surviving fraction": "1.14 ± 0.23"}, {"test system": "SUM149 BREAST", "surviving fraction": "0.871 ± 0.11"}, {"test system": "MDAMB361 BREAST", "surviving fraction": "0.83 ± 0.021"}, {"test system": "SAOS2 BONE", "surviving fraction": "1.11 ± 0.052"}, {"test system": "ASKA SYNOVIAL", "surviving fraction": "1.04 ± 0.03"}, {"test system": "HCC1395 BREAST", "surviving fraction": "0.717 ± 0.018"}, {"test system": "HCC1954 BREAST", "surviving fraction": "0.673 ± 0.096"}, {"test system": "CME SYNOVIAL", "surviving fraction": "1.24 ± 0.088"}, {"test system": "VCAP PROSTATE", "surviving fraction": "1.04 ± 0.046"}, {"test system": "YAMATO SYNOVIAL", "surviving fraction": "1.24 ± 0.083"}, {"test system": "HCC202 BREAST", "surviving fraction": "1.1 ± 0.14"}, {"test system": "HELA CERVIX", "surviving fraction": "1 ± 0.046"}, {"test system": "SG27 HEADNECK", "surviving fraction": "0.942 ± 0.013"}, {"test system": "CAL72 BONE", "surviving fraction": "0.994 ± 0.016"}]}, {"compound": "CS(=O)(=O)c1ccc(C(=O)Nc2ccc(Cl)c(-c3ccccn3)c2)c(Cl)c1 [VISMODEGIB]", "assay": "surviving fraction relative to DMSO-only wells; higher = less growth inhibition", "details": "1 nM; exposure time: 5 days", "in_short": "as §1", "values": [{"test system": "SCC36 HEADNECK", "surviving fraction": "0.979 ± 0.033"}, {"test system": "OS25HAL BONE", "surviving fraction": "1 ± 0.033"}, {"test system": "HCC1806 BREAST", "surviving fraction": "1.03 ± 0.043"}, {"test system": "HU09 BONE", "surviving fraction": "0.973 ± 0.088"}, {"test system": "SG43 HEADNECK", "surviving fraction": "1.15 ± 0.63"}, {"test system": "U2OS BONE", "surviving fraction": "1.07 ± 0.042"}, {"test system": "HOSMNG BONE", "surviving fraction": "0.993 ± 0.15"}, {"test system": "CASKI CERVIX", "surviving fraction": "0.979 ± 0.026"}, {"test system": "SUM44 BREAST", "surviving fraction": "0.951 ± 0.048"}, {"test system": "MDAMB231 BREAST", "surviving fraction": "0.942 ± 0.018"}, {"test system": "CAL51 BREAST", "surviving fraction": "0.923 ± 0.013"}, {"test system": "MDAMB436 BREAST", "surviving fraction": "0.865 ± 0.0089"}, {"test system": "HSSYII SYNOVIAL", "surviving fraction": "0.931 ± 0.038"}, {"test system": "RDES SOFT TISSUE", "surviving fraction": "1.1 ± 0.047"}, {"test system": "MDAMB157 BREAST", "surviving fraction": "0.943 ± 0.098"}, {"test system": "CHLA90 AUTONOMIC GANGLIA", "surviving fraction": "0.949 ± 0.06"}, {"test system": "CADOES1 SOFT TISSUE", "surviving fraction": "0.935 ± 0.085"}, {"test system": "SG31 HEADNECK", "surviving fraction": "1.01 ± 0.2"}, {"test system": "SCC47 HEADNECK", "surviving fraction": "1 ± 0.07"}, {"test system": "S68 BREAST", "surviving fraction": "0.839 ± 0.11"}, {"test system": "SNU475 LIVER", "surviving fraction": "0.946 ± 0.057"}, {"test system": "22RV1 PROSTATE", "surviving fraction": "1.04 ± 0.029"}, {"test system": "SG32 HEADNECK", "surviving fraction": "1.08 ± 0.11"}, {"test system": "SCC003 HEADNECK", "surviving fraction": "0.988 ± 0.029"}, {"test system": "JURKAT HAEMATOPOIETIC AND LYMPHOID TISSUE", "surviving fraction": "1.09 ± 0.017"}, {"test system": "HT1080 SOFT TISSUE", "surviving fraction": "0.971 ± 0.028"}, {"test system": "CAL120 BREAST", "surviving fraction": "0.968 ± 0.018"}, {"test system": "MCF7 BREAST", "surviving fraction": "0.916 ± 0.059"}, {"test system": "MFM223 BREAST", "surviving fraction": "1.1 ± 0.021"}, {"test system": "LNCAP PROSTATE", "surviving fraction": "0.95 ± 0.15"}, {"test system": "PCI30 HEADNECK", "surviving fraction": "0.956 ± 0.07"}, {"test system": "OSHN BONE", "surviving fraction": "1.03 ± 0.019"}, {"test system": "SG28 HEADNECK", "surviving fraction": "0.995 ± 0.042"}, {"test system": "HOS BONE", "surviving fraction": "1.01 ± 0.015"}, {"test system": "HUO3N1 BONE", "surviving fraction": "0.976 ± 0.038"}, {"test system": "BT20 BREAST", "surviving fraction": "0.977 ± 0.039"}, {"test system": "SJSA1 BONE", "surviving fraction": "1.01 ± 0.07"}, {"test system": "JIMT1 BREAST", "surviving fraction": "0.89 ± 0.016"}, {"test system": "HCC78 LUNG", "surviving fraction": "0.941 ± 0.1"}, {"test system": "NY BONE", "surviving fraction": "0.968 ± 0.033"}, {"test system": "NOS1 BONE", "surviving fraction": "1.13 ± 0.13"}, {"test system": "SUM149.B1*.S BREAST", "surviving fraction": "0.971 ± 0.056"}, {"test system": "93VU HEADNECK", "surviving fraction": "1.08 ± 0.057"}, {"test system": "LM7 BONE", "surviving fraction": "0.955 ± 0.02"}, {"test system": "143B BONE", "surviving fraction": "0.98 ± 0.047"}, {"test system": "SUM159 BREAST", "surviving fraction": "1.12 ± 0.17"}, {"test system": "SUM149 BREAST", "surviving fraction": "0.856 ± 0.042"}, {"test system": "MDAMB361 BREAST", "surviving fraction": "0.798 ± 0.039"}, {"test system": "SAOS2 BONE", "surviving fraction": "1.097 ± 0.0075"}, {"test system": "ASKA SYNOVIAL", "surviving fraction": "1.07 ± 0.046"}, {"test system": "HCC1395 BREAST", "surviving fraction": "0.758 ± 0.12"}, {"test system": "HCC1954 BREAST", "surviving fraction": "0.637 ± 0.0088"}, {"test system": "CME SYNOVIAL", "surviving fraction": "1.2 ± 0.12"}, {"test system": "VCAP PROSTATE", "surviving fraction": "1 ± 0.11"}, {"test system": "YAMATO SYNOVIAL", "surviving fraction": "1.26 ± 0.099"}, {"test system": "HCC202 BREAST", "surviving fraction": "0.842 ± 0.13"}, {"test system": "HELA CERVIX", "surviving fraction": "1.05 ± 0.052"}, {"test system": "SG27 HEADNECK", "surviving fraction": "0.974 ± 0.13"}, {"test system": "CAL72 BONE", "surviving fraction": "1.01 ± 0.017"}]}]}
